Several values for one entry are separate records, joined by “and”; a condition that tells them apart may be missing. Equal values may be shown once. Toxic doses and inconclusive results are not listed.
Test system: P388 leukemia ip, CD2F1 mice, survival T/C
Assay: NCI In Vivo Anticancer Drug Screen. Data for tumor model P388 Leukemia (intraperitoneal) in CD2F1 (CDF1) mice
Details: endpoint: median survival time, higher = longer survival
Procedure, shortened: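 Mice carrying the transplanted tumor received test compound or vehicle. Survival was recorded in each group, and the value is the treated-group measurement divided by that of the vehicle-treated control group.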

[1] = dose: 60.0 mg/kg/injection, schedule: Q01DX005 (ip), vehicle: saline with Tween-80
[2] = dose: 120.0 mg/kg/injection, schedule: Q01DX005 (ip), vehicle: saline with Tween-80
[3] = dose: 3.13 mg/kg/injection, schedule: Q01DX009 (ip), vehicle: saline with Tween-80
[4] = dose: 6.25 mg/kg/injection, schedule: Q01DX009 (ip), vehicle: saline with Tween-80
[5] = dose: 12.5 mg/kg/injection, schedule: Q01DX009 (ip), vehicle: saline with Tween-80
[6] = dose: 25.0 mg/kg/injection, schedule: Q01DX009 (ip), vehicle: saline with Tween-80
[7] = dose: 100.0 mg/kg/injection, schedule: Q04DX002 (ip), vehicle: saline with Tween-80
[8] = dose: 200.0 mg/kg/injection, schedule: Q04DX002 (ip), vehicle: saline with Tween-80
[9] = dose: 400.0 mg/kg/injection, schedule: Q04DX002 (ip), vehicle: saline with Tween-80
[10] = dose: 50.0 mg/kg/injection, schedule: Q01DX005 (ip), vehicle: Klucel (hydroxypropylcellulose) (HPC)
[11] = dose: 100.0 mg/kg/injection, schedule: Q01DX005 (ip), vehicle: Klucel (hydroxypropylcellulose) (HPC)
[12] = dose: 200.0 mg/kg/injection, schedule: Q01DX005 (ip), vehicle: Klucel (hydroxypropylcellulose) (HPC)
[13] = dose: 50.0 mg/kg/injection, schedule: Q01DX005 (ip), vehicle: saline with Tween-80
[14] = dose: 100.0 mg/kg/injection, schedule: Q01DX005 (ip), vehicle: saline with Tween-80
[15] = dose: 200.0 mg/kg/injection, schedule: Q01DX005 (ip), vehicle: saline with Tween-80
[16] = dose: 100.0 mg/kg/injection, schedule: Q01DX009 (ip), vehicle: saline with Tween-80
[17] = dose: 200.0 mg/kg/injection, schedule: Q01DX009 (ip), vehicle: saline with Tween-80

## O=C(CCl)Nc1cc2ccccc2oc1=O
[1]
  T/C: 105 % of control
[2]
  T/C: 109 % of control

## CC(C)(C)C1CCC(NC(=O)c2ccccc2)CC1 (centres undefined)
[3]
  T/C: 99 % of control
[4]
  T/C: 99 % of control
[5]
  T/C: 93 % of control
[6]
  T/C: 99 % of control

## CC(=O)OCc1ccc[n+]([O-])c1
dose: 25.0 mg/kg/injection, schedule: Q01DX009 (ip), vehicle: saline
  T/C: 99 % of control and 96 % of control
dose: 50.0 mg/kg/injection, schedule: Q01DX009 (ip), vehicle: saline
  T/C: 99 % of control and 103 % of control
dose: 100.0 mg/kg/injection, schedule: Q01DX009 (ip), vehicle: saline
  T/C: 99 % of control and 103 % of control
dose: 200.0 mg/kg/injection, schedule: Q01DX009 (ip), vehicle: saline
  T/C: 99 % of control and 86 % of control
dose: 400.0 mg/kg/injection, schedule: Q01DX009 (ip), vehicle: saline
  T/C: 99 % of control and 109 % of control

## COC(=O)C(C)NC(=O)C(C)NC(=O)c1ccc(OC)cc1 (centres undefined)
[7]
  T/C: 105 % of control
[8]
  T/C: 99 % of control
[9]
  T/C: 91 % of control

## CCOC(=O)c1oc2cc(O)ccc2c(=O)c1-c1ccc(OC)c(OC)c1
[1]
  T/C: 96 % of control
[2]
  T/C: 87 % of control
dose: 240.0 mg/kg/injection, schedule: Q01DX005 (ip), vehicle: saline with Tween-80
  T/C: 86 % of control

## CCc1nc(N)nc(N)c1-c1ccc(N2CCNCC2)cc1
[10]
  T/C: 96 % of control
[11]
  T/C: 95 % of control
[12]
  T/C: 101 % of control

## Nn1nnc2cc3c(cc21)nnn3N
[7]
  T/C: 109 % of control
[8]
  T/C: 98 % of control
[9]
  T/C: 95 % of control

## N=C(N)c1ccc(-c2ccc(-c3ccc(C(=N)N)cc3)o2)cc1
[3]
  T/C: 94 % of control
[4]
  T/C: 102 % of control

## Nc1cccc[n+]1CCCCCC[n+]1ccccc1N
dose: 3.13 mg/kg/injection, schedule: Q01DX009 (ip), vehicle: saline
  T/C: 102 % of control
dose: 6.25 mg/kg/injection, schedule: Q01DX009 (ip), vehicle: saline
  T/C: 103 % of control

## FC(F)(F)C1(C(F)(F)F)O[P+](c2ccccc2)(c2ccccc2)c2ccccc21
[10]
  T/C: 100 % of control
[11]
  T/C: 110 % of control
[12]
  T/C: 102 % of control

## N#Cc1nn(-c2ccccc2)sc1=N
dose: 3.13 mg/kg/injection, schedule: Q01DX009 (ip), vehicle: other
  T/C: 104 % of control
dose: 6.25 mg/kg/injection, schedule: Q01DX009 (ip), vehicle: other
  T/C: 110 % of control
dose: 12.5 mg/kg/injection, schedule: Q01DX009 (ip), vehicle: other
  T/C: 100 % of control
dose: 25.0 mg/kg/injection, schedule: Q01DX009 (ip), vehicle: other
  T/C: 94 % of control
dose: 50.0 mg/kg/injection, schedule: Q01DX009 (ip), vehicle: other
  T/C: 88 % of control
dose: 100.0 mg/kg/injection, schedule: Q01DX009 (ip), vehicle: other
  T/C: 88 % of control

## CC(C)c1cc2c(c(O)c1O)C13CCCC(C)(C)C1CC2OC3=O (centres undefined)
dose: 7.0 mg/kg/injection, schedule: Q01DX005 (ip), vehicle: saline with Tween-80
  T/C: 113 % of control
dose: 14.0 mg/kg/injection, schedule: Q01DX005 (ip), vehicle: saline with Tween-80
  T/C: 111 % of control
dose: 28.0 mg/kg/injection, schedule: Q01DX005 (ip), vehicle: saline with Tween-80
  T/C: 104 % of control

## O=c1[nH]c2cc(Cl)ccc2c(=O)o1
dose: 50.0 mg/kg/injection, schedule: Q01DX009 (ip), vehicle: Klucel (hydroxypropylcellulose) (HPC)
  T/C: 112 % of control
dose: 100.0 mg/kg/injection, schedule: Q01DX009 (ip), vehicle: Klucel (hydroxypropylcellulose) (HPC)
  T/C: 100 % of control
dose: 200.0 mg/kg/injection, schedule: Q01DX009 (ip), vehicle: Klucel (hydroxypropylcellulose) (HPC)
  T/C: 103 % of control

## CC(=O)N(C)c1ccc2c(c1)C(=O)c1ccccc1-2
[13]
  T/C: 102 % of control
[14]
  T/C: 95 % of control
[15]
  T/C: 92 % of control

## COc1ccc(-c2ccc(OC)c(=O)cc2)c(OC)c1OC
[10]
  T/C: 93 % of control
[11]
  T/C: 105 % of control

## C[n+]1c2ccccc2nc2c(N)cc(N)cc21
dose: 31.3 mg/kg/injection, schedule: Q04DX003 (ip), vehicle: saline sonified
  T/C: 104 % of control
dose: 83.0 mg/kg/injection, schedule: Q04DX003 (ip), vehicle: saline with Tween-80
  T/C: 113 % of control
dose: 125.0 mg/kg/injection, schedule: Q04DX003 (ip), vehicle: saline with Tween-80
  T/C: 122 % of control
dose: 188.0 mg/kg/injection, schedule: Q04DX003 (ip), vehicle: saline with Tween-80
  T/C: 100 % of control

## COC(=S)c1ccc(C(=S)OC)cc1
dose: 50.0 mg/kg/injection, schedule: Q01DX009 (ip), vehicle: saline with Tween-80
  T/C: 99 % of control
[16]
  T/C: 105 % of control
[17]
  T/C: 103 % of control

## C[N+]1(C)CCC(Cl)CC1
dose: 3.75 mg/kg/injection, schedule: Q01DX005 (ip), vehicle: saline
  T/C: 104 % of control
dose: 7.5 mg/kg/injection, schedule: Q01DX005 (ip), vehicle: saline
  T/C: 103 % of control
dose: 15.0 mg/kg/injection, schedule: Q01DX005 (ip), vehicle: saline
  T/C: 99 % of control
dose: 30.0 mg/kg/injection, schedule: Q01DX005 (ip), vehicle: saline
  T/C: 100 % of control and 102 % of control

## COc1cc2c(c(OC)c1OC)-c1ccc(OC)c(=O)cc1[C@@H](NC(=O)CCl)CC2
dose: 0.06 mg/kg/injection, schedule: Q01DX009 (ip), vehicle: Klucel (hydroxypropylcellulose) (HPC)
  T/C: 114 % of control
dose: 0.12 mg/kg/injection, schedule: Q01DX009 (ip), vehicle: saline with Tween-80
  T/C: 166 % of control
dose: 0.13 mg/kg/injection, schedule: Q01DX009 (ip), vehicle: saline with Tween-80
  T/C: 156 % of control
dose: 0.15 mg/kg/injection, schedule: Q01DX009 (ip), vehicle: saline
  T/C: 103 % of control
dose: 0.25 mg/kg/injection, schedule: Q01DX009 (ip), vehicle: Klucel (hydroxypropylcellulose) (HPC)
  T/C: 115 % of control
dose: 0.25 mg/kg/injection, schedule: Q01DX009 (ip), vehicle: saline with Tween-80
  T/C: 153 % of control and 173 % of control
dose: 0.31 mg/kg/injection, schedule: Q01DX009 (ip), vehicle: saline
  T/C: 122 % of control
dose: 0.5 mg/kg/injection, schedule: Q01DX009 (ip), vehicle: saline with Tween-80
  T/C: 93 % of control
dose: 1.25 mg/kg/injection, schedule: Q01DX009 (ip), vehicle: saline
  T/C: 167 % of control

## CCCN(CCC)CC(O)c1cc2cc(C(F)(F)F)cc(C(F)(F)F)c2c2cc(Cl)c(Cl)cc12 (centres undefined)
[4]
  T/C: 102 % of control
[5]
  T/C: 101 % of control
[6]
  T/C: 94 % of control
[16]
  T/C: 91 % of control
[17]
  T/C: 91 % of control

## COc1cc(C(=O)CC2=NC3NN(c4ccccc4)C(=O)C3=C2CC(=O)c2ccc(O)c(OC)c2)ccc1O (centres undefined)
dose: 60.0 mg/kg/injection, schedule: Q01DX005 (ip), vehicle: saline
  T/C: 100 % of control
dose: 120.0 mg/kg/injection, schedule: Q01DX005 (ip), vehicle: saline
  T/C: 102 % of control
dose: 240.0 mg/kg/injection, schedule: Q01DX005 (ip), vehicle: saline
  T/C: 98 % of control

## Cn1c(=O)c2c(ncn2Cc2ccc(O)c([N+](=O)[O-])c2)n(C)c1=O
dose: 25.0 mg/kg/injection, schedule: Q01DX005 (ip), vehicle: Klucel (hydroxypropylcellulose) (HPC)
  T/C: 91 % of control
[11]
  T/C: 94 % of control
[12]
  T/C: 92 % of control

## C/C=C/COCC
dose: 100.0 mg/kg/injection, schedule: Q04DX003 (ip), vehicle: saline with Tween-80
  T/C: 101 % of control
dose: 200.0 mg/kg/injection, schedule: Q04DX003 (ip), vehicle: saline with Tween-80
  T/C: 106 % of control
dose: 400.0 mg/kg/injection, schedule: Q04DX003 (ip), vehicle: saline with Tween-80
  T/C: 108 % of control

## CCOC(=O)C1C2(C)NC(=O)C1(Cc1ccccc1)c1cc(C)c(C)cc1O2 (centres undefined)
[13]
  T/C: 99 % of control
[14]
  T/C: 96 % of control
[15]
  T/C: 87 % of control

From PubChem BioAssay AID330 (DTP/NCI, 2004)
